Values after ≈ are worked out from the molar mass of the structure shown.

The test system of data set [1] is ovary cancer and cancers of thymus and others. The settings on record: cited from earlier work.
The nature of data set [2]: solubility in physiological saline. In kind it is physicochemical. The method, then:
Solubility: 5 mg/ml (physiological saline)
In the tables, solubility means a solubility in physiological saline.

The subject of another data set is BDF1 mice. The experiment in a line: toxicity, intraperitoneal administration to BDF1 mice, 20 days observation. In kind it is in vivo, mouse. The settings on record: 25 mg/kg, 4 times once a day, observed for 20 days. From the text: Further, the taxol derivative of the present invention or a pharmaceutically acceptable salt thereof has low toxicity and high water solubility.

Another data set concerns various kinds of cancers. The settings on record: cited from earlier work.
For data set [3] the following is noted: cited from earlier work.
[4] abbreviates: methanesulfonate, medium not printed at the place.

Turning to `CC(=O)O[C@@]12CO[C@@H]1C[C@H](O)[C@@]1(C)C(=O)[C@H](O)C3=C(C)[C@@H](OC(=O)[C@H](O)[C@@H](NC(=O)OC(C)(C)C)c4ccccc4)C[C@@](O)([C@@H](OC(=O)c4ccccc4)[C@H]21)C3(C)C` [4α-acetoxy-2α-benzoyloxy-5β,20-epoxy-1β,7β,10β-trihydroxy-13α-[(2R,3S)-3-phenyl-3-(t-butoxycarbonylamino)-2-hydroxypropionyloxy]-tax-11-en-9-one], the antitumor activities entry in data set [1] was “excellent antitumor activities”.
The solubility is the dissolved amount per volume that the medium holds. A lower solubility goes with a poorly soluble substance. Take `CCOC(=O)[C@@H](N)CC(=O)OCC(=O)O[C@@H](C(=O)O[C@H]1C[C@@]2(O)[C@@H](OC(=O)c3ccccc3)[C@@H]3[C@]4(OC(C)=O)CO[C@@H]4C[C@H](O)[C@@]3(C)C(=O)[C@H](O)C(=C1C)C2(C)C)[C@@H](NC(=O)OC(C)(C)C)c1ccccc1` [Example 32, 4α-acetoxy-13α-{(2R,3S)-3-tert-butoxycarbonylamino-2-[((3S)-3-amino-3-ethoxycarbonylpropionyloxy)acetoxy]-3-phenylpropionyloxy}-2α-benzoyloxy-5β,20-epoxy-1β,7β,10β-trihydroxytax-11-en-9-one.methanesulfonate]: the solubility in data set [2] (setting [4]) and in data set [2] (physiological saline) was 5000 µg/mL throughout. Further, the death entry in the data set with BDF1 mice is given as “no case of death was observed”.
In data set [2] (physiological saline), `CC(=O)O[C@@]12CO[C@@H]1C[C@H](O)[C@@]1(C)C(=O)[C@H](O)C3=C(C)[C@@H](OC(=O)[C@H](OC(=O)COC(=O)[C@@H]4CCCN4)[C@@H](NC(=O)OC(C)(C)C)c4ccccc4)C[C@@](O)([C@@H](OC(=O)c4ccccc4)[C@H]21)C3(C)C` [Example 33] had a solubility of 1400 µg/mL (≈ 1450 µM).
In data set [2] (physiological saline), `CC(=O)O[C@@]12CO[C@@H]1C[C@H](O)[C@@]1(C)C(=O)[C@H](O)C3=C(C)[C@@H](OC(=O)[C@H](OC(=O)COC(=O)CNC(=O)CN)[C@@H](NC(=O)OC(C)(C)C)c4ccccc4)C[C@@](O)([C@@H](OC(=O)c4ccccc4)[C@H]21)C3(C)C` [Example 34] gave a solubility of 10000 µg/mL (≈ 10200 µM).
Consider `COCCOC(=O)[C@@H](N)CC(=O)OCC(=O)O[C@@H](C(=O)O[C@H]1C[C@@]2(O)[C@@H](OC(=O)c3ccccc3)[C@@H]3[C@]4(OC(C)=O)CO[C@@H]4C[C@H](O)[C@@]3(C)C(=O)[C@H](O)C(=C1C)C2(C)C)[C@@H](NC(=O)OC(C)(C)C)c1ccccc1` [Example 35, 4α-acetoxy-13α-{(2R,3S)-3-tert-butoxycarbonylamino-2-[((3S)-3-amino-3-(2-methoxyethoxycarbonyl)propionyloxy)acetoxy]-3-phenylpropionyloxy}-2α-benzoyloxy-5β,20-epoxy-1β,7β,10β-trihydroxytax-11-en-9-one.methanesulfonate], for which the solubility in data set [2] (setting [4]) and in data set [2] (physiological saline) was 10000 µg/mL in each case. Besides, in the data set with BDF1 mice, the death result is recorded as “no case of death was observed”.
With `CC(=O)O[C@@]12CO[C@@H]1C[C@H](O)[C@@]1(C)C(=O)[C@H](O)C3=C(C)[C@@H](OC(=O)[C@H](OC(=O)COC(=O)[C@H](C)N)[C@@H](NC(=O)OC(C)(C)C)c4ccccc4)C[C@@](O)([C@@H](OC(=O)c4ccccc4)[C@H]21)C3(C)C` [Example 36], the concentration in solution in data set [2] (physiological saline) (solubility) came to 2000 µg/mL (≈ 2130 µM).
On the same count and under the same terms, for `CCOC(=O)[C@@H](N)CC(=O)OCCCCC(=O)O[C@@H](C(=O)O[C@H]1C[C@@]2(O)[C@@H](OC(=O)c3ccccc3)[C@@H]3[C@]4(OC(C)=O)CO[C@@H]4C[C@H](O)[C@@]3(C)C(=O)[C@H](O)C(=C1C)C2(C)C)[C@@H](NC(=O)OC(C)(C)C)c1ccccc1` [Example 37] the value was 1000 µg/mL (≈ 951 µM); for `CC(=O)O[C@@]12CO[C@@H]1C[C@H](O)[C@@]1(C)C(=O)[C@H](O)C3=C(C)[C@@H](OC(=O)[C@H](OC(=O)COC(=O)CCN)[C@@H](NC(=O)c4ccccc4)c4ccccc4)C[C@@](O)([C@@H](OC(=O)c4ccccc4)[C@H]21)C3(C)C` [Example 38], 1000 µg/mL (≈ 1060 µM); for `CCOC(=O)[C@@H](N)CC(=O)OCC(=O)O[C@@H](C(=O)O[C@H]1C[C@@]2(O)[C@@H](OC(=O)c3ccccc3)[C@@H]3[C@]4(OC(C)=O)CO[C@@H]4C[C@H](O)[C@@]3(C)C(=O)[C@H](O)C(=C1C)C2(C)C)[C@@H](NC(=O)c1ccco1)c1ccccc1` [Example 40], 6000 µg/mL (≈ 5980 µM).
`CCOC(=O)[C@@H](N)CC(=O)OCC(=O)O[C@@H](C(=O)O[C@H]1C[C@@]2(O)[C@@H](OC(=O)c3ccccc3)[C@@H]3[C@]4(OC(C)=O)CO[C@@H]4C[C@H](O)[C@@]3(C)C(=O)[C@H](O)C(=C1C)C2(C)C)[C@@H](NC(=O)c1cccs1)c1ccccc1` [Example 41] registered a solubility in data set [2] (physiological saline) of 700 µg/mL (≈ 687 µM).
Still for that read-out and setting: for `CCOC(=O)[C@@H](N)CC(=O)OCC(=O)O[C@@H](C(=O)O[C@H]1C[C@@]2(O)[C@@H](OC(=O)c3ccccc3)[C@@H]3[C@]4(OC(C)=O)CO[C@@H]4C[C@H](O)[C@@]3(C)C(=O)[C@H](O)C(=C1C)C2(C)C)[C@@H](NC(=O)CCCCCl)c1ccccc1` [Example 42] the value was 5000 µg/mL (≈ 4870 µM).
The same measure, in the same setting: for `CCOC(=O)[C@@H](N)CC(=O)OCC(=O)O[C@@H](C(=O)O[C@H]1C[C@@]2(O)[C@@H](OC(=O)c3ccccc3)[C@@H]3[C@]4(OC(C)=O)CO[C@@H]4C[C@H](O)[C@@]3(C)C(=O)[C@H](O)C(=C1C)C2(C)C)[C@@H](NC(=O)c1cc(OC)ccc1OC)c1ccccc1` [Example 43] the value was 500 µg/mL (≈ 466 µM); for `CCOC(=O)N[C@@H](c1ccccc1)[C@@H](OC(=O)COC(=O)C[C@H](N)C(=O)OCC)C(=O)O[C@H]1C[C@@]2(O)[C@@H](OC(=O)c3ccccc3)[C@@H]3[C@]4(OC(C)=O)CO[C@@H]4C[C@H](O)[C@@]3(C)C(=O)[C@H](O)C(=C1C)C2(C)C` [Example 44], 4000 µg/mL (≈ 4080 µM); for `CCOC(=O)[C@@H](N)CC(=O)OCC(=O)O[C@@H](C(=O)O[C@H]1C[C@@]2(O)[C@@H](OC(=O)c3ccccc3)[C@@H]3[C@]4(OC(C)=O)CO[C@@H]4C[C@H](O)[C@@]3(C)C(=O)[C@H](O)C(=C1C)C2(C)C)[C@@H](NC(=O)OCC1C(C)(C)C1(F)F)c1ccccc1` (some centres unmarked) [Example 45], 600 µg/mL (≈ 560 µM).
For `CCOC(=O)[C@@H](N)CC(=O)OCC(=O)O[C@@H](C(=O)O[C@H]1C[C@@]2(O)[C@@H](OC(=O)c3ccccc3)[C@@H]3[C@]4(OC(C)=O)CO[C@@H]4C[C@H](O)[C@@]3(C)C(=O)[C@H](O)C(=C1C)C2(C)C)[C@@H](NC(=O)OCC(F)(F)F)c1ccccc1` [Example 46], the concentration in solution in data set [2] (physiological saline) (solubility) came to 5000 µg/mL (≈ 4830 µM).
As to `CCOC(=O)[C@@H](N)CC(=O)OCC(=O)O[C@@H](C(=O)O[C@H]1C[C@@]2(O)[C@@H](OC(=O)c3ccccc3)[C@@H]3[C@]4(OC(C)=O)CO[C@@H]4C[C@H](O)[C@@]3(C)C(=O)[C@H](O)C(=C1C)C2(C)C)[C@@H](NC(=O)OCCOC)c1ccccc1` [Example 47], the solubility in data set [2] (physiological saline) is more than 10000 µg/mL.
Take `CCOC(=O)[C@@H](N)CC(=O)OCC(=O)O[C@@H](C(=O)O[C@H]1C[C@@]2(O)[C@@H](OC(=O)c3ccccc3)[C@@H]3[C@]4(OC(C)=O)CO[C@@H]4C[C@H](O)[C@@]3(C)C(=O)[C@H](O)C(=C1C)C2(C)C)[C@@H](NC(=O)OCC1CCC1)c1ccccc1` [Example 48]: the solubility in data set [2] (physiological saline) came to 1000 µg/mL (≈ 979 µM).
Same read-out and setting: for `CCOC(=O)[C@@H](N)CC(=O)OCC(=O)O[C@@H](C(=O)O[C@H]1C[C@@]2(O)[C@@H](OC(=O)c3ccccc3)[C@@H]3[C@]4(OC(C)=O)CO[C@@H]4C[C@H](O)[C@@]3(C)C(=O)[C@H](O)C(=C1C)C2(C)C)[C@@H](NC(=O)OCC1CC1)c1ccccc1` [Example 49] the value was 5000 µg/mL (≈ 4960 µM); for `CCOC(=O)[C@@H](N)CC(=O)OCC(=O)O[C@@H](C(=O)O[C@H]1C[C@@]2(O)[C@@H](OC(=O)c3ccccc3)[C@@H]3[C@]4(OC(C)=O)CO[C@@H]4C[C@H](O)[C@@]3(C)C(=O)[C@H](O)C(=C1C)C2(C)C)[C@@H](NC(=O)OC(C)(C)C)c1ccc(F)cc1F` [Example 52], 1000 µg/mL (≈ 957 µM); for `CCOC(=O)[C@@H](N)CC(=O)OCC(=O)O[C@@H](C(=O)O[C@H]1C[C@@]2(O)[C@@H](OC(=O)c3ccccc3)[C@@H]3[C@]4(OC(C)=O)CO[C@@H]4C[C@H](O)[C@@]3(C)C(=O)[C@H](O)C(=C1C)C2(C)C)[C@@H](NC(=O)OC(C)(C)C)c1ccc(OC)cc1` [Example 56], 15000 µg/mL (≈ 14400 µM).
Consider `COCCOC(=O)[C@@H](N)CC(=O)OCC(=O)O[C@@H](C(=O)O[C@H]1C[C@@]2(O)[C@@H](OC(=O)c3ccccc3)[C@@H]3[C@]4(OC(C)=O)CO[C@@H]4C[C@H](O)[C@@]3(C)C(=O)[C@H](O)C(=C1C)C2(C)C)[C@@H](NC(=O)OC(C)(C)C)c1ccc(F)cc1F` [Example 57], for which the concentration in solution in data set [2] (physiological saline) (solubility) was 5000 µg/mL (≈ 4650 µM).
For `CCOC(=O)[C@@H](N)CC(=O)OCC(=O)O[C@@H](C(=O)O[C@H]1C[C@@]2(O)[C@@H](OC(=O)c3ccccc3)[C@@H]3[C@]4(OC(C)=O)CO[C@@H]4C[C@H](O)[C@@]3(C)C(=O)[C@H](OC(C)=O)C(=C1C)C2(C)C)[C@@H](NC(=O)c1ccccc1)c1ccccc1` [Example 59, 4α,10β-diacetoxy-13α-{(2R,3S)-3-benzoylamino-2-[((3S)-3-amino-3-ethoxycarbonylpropionyloxy)acetoxy]-3-phenylpropionyloxy}-2α-benzoyloxy-5β,20-epoxy-1β,7β-dihydroxytax-l 1-en-9-one.methanesulfonate], the solubility in data set [2] (physiological saline) amounted to 300 µg/mL.
For `CC(=O)O[C@H]1C(=O)[C@@]2(C)[C@H]([C@H](OC(=O)c3ccccc3)[C@]3(O)C[C@H](OC(=O)[C@H](O)[C@@H](NC(=O)c4ccccc4)c4ccccc4)C(C)=C1C3(C)C)[C@]1(OC(C)=O)CO[C@@H]1C[C@@H]2O` [taxol, 4α,10β-diacetoxy-2α-benzoyloxy-5β,20-epoxy-1β,7β-dihydroxy-13α-[(2R,3S)-3-phenyl-3-benzoylamino-2-hydroxypropionyloxy]-tax-11-en-9-one], the anti-tumor activity entry with various kinds of cancers is listed as “excellent anti-tumor activity”. In data set [3], the water-solubility is not above 4 µg/mL. In addition, in data set [1], the antitumor activities entry is “excellent antitumor activities”.
